In article PMC5620277, “The histone methyltransferase EZH2 as a druggable target in SHH medulloblastoma cancer stem cells” (Oncotarget, 2017):

Assays:
DNMT1 = DNMT1 (Homo sapiens, UniProt P26358); assay: Methyltransferase panel: DNMT1; type: biochemical; conditions: substrate Poly dI-dC
Experimental: MC3629 was tested in the cell free enzymatic assay (EZH2/PRC2) in 10-dose IC50 mode with 2-fold serial dilution starting from 400 μM solution, using various histone substrates (histone H3/H4 octamer, histone H3/H4 tetramer, histone H3, and core histone) and SAM as the co-substrate. […] (Figure 2B, and Supplementary Figure 2).
The appropriate methyltransferase (MT) substrate (0.05 mg/ml core histone for EZH1 complex, 0.05 mg/ml oligonucleosomes for DOT1L, 5 μM histone H3 (1-21) peptide for G9a, 0.05 mg/ml nucleosomes for MLL1 complex, 0.05 mg/ml core histone for SET7/9, 5 μM histone H4 for PRMT1, and 0.001 mg/ml poly(dI-dC) for DNMT1) was added in freshly prepared Reaction Buffer (50 mM Tris-HCl (pH 8.5), 5 mM MgCl2, 50 mM NaCl, 0.01% Brij35, 1 mM DTT, 1% DMSO). The MT enzyme was delivered into the substrate solution and the mixture was mixed gently. Afterwards, the tested compound dissolved in DMSO was delivered into the enzyme/substrate reaction mixture by using Acoustic Technology (Echo 550, LabCyte Inc. Sunnyvale, CA) in nanoliter range, and 1 μM ^3H-SAM was also added into the reaction mixture to initiate the reaction. The reaction mixture was incubated for 1 h at 30°C and then it was delivered to filter-paper for detection. The data were analyzed using Excel and GraphPad Prism software for IC50 curve fits (for EZH1 complex).

mMB-SLCs = assay: Cell viability, MTS assay, mMB-SLCs; type: cell-based, mouse
Experimental: (§1) In both cell lines, we determined the lowest useful dose of MC3629 (5 μM) and the minimum effective time (48 h) (Figure 2D, 2E and Supplementary Figure 4A and 4B for data at 24 and 72 h). We next evaluated the performance of MC3629 on MB-SLCs in terms of cell viability in regards to other EZH2i in use, confirming the dose selection (Supplementary Figure 4C).
(§2) To evaluate cell viability cells were plated at a density of 5×10^3 cells/well in 96-well plates and were incubated with MTS solution (CellTiter 96® AQueous One Solution Promega).

hMB-SLCs = assay: Cell viability, MTS assay, hMB-SLCs; type: cell-based, human
Experimental: as §1, §2

[1] = dose- and time-dependent experiments

Chain of DNMT1 (P26358 whole entry, species assumed): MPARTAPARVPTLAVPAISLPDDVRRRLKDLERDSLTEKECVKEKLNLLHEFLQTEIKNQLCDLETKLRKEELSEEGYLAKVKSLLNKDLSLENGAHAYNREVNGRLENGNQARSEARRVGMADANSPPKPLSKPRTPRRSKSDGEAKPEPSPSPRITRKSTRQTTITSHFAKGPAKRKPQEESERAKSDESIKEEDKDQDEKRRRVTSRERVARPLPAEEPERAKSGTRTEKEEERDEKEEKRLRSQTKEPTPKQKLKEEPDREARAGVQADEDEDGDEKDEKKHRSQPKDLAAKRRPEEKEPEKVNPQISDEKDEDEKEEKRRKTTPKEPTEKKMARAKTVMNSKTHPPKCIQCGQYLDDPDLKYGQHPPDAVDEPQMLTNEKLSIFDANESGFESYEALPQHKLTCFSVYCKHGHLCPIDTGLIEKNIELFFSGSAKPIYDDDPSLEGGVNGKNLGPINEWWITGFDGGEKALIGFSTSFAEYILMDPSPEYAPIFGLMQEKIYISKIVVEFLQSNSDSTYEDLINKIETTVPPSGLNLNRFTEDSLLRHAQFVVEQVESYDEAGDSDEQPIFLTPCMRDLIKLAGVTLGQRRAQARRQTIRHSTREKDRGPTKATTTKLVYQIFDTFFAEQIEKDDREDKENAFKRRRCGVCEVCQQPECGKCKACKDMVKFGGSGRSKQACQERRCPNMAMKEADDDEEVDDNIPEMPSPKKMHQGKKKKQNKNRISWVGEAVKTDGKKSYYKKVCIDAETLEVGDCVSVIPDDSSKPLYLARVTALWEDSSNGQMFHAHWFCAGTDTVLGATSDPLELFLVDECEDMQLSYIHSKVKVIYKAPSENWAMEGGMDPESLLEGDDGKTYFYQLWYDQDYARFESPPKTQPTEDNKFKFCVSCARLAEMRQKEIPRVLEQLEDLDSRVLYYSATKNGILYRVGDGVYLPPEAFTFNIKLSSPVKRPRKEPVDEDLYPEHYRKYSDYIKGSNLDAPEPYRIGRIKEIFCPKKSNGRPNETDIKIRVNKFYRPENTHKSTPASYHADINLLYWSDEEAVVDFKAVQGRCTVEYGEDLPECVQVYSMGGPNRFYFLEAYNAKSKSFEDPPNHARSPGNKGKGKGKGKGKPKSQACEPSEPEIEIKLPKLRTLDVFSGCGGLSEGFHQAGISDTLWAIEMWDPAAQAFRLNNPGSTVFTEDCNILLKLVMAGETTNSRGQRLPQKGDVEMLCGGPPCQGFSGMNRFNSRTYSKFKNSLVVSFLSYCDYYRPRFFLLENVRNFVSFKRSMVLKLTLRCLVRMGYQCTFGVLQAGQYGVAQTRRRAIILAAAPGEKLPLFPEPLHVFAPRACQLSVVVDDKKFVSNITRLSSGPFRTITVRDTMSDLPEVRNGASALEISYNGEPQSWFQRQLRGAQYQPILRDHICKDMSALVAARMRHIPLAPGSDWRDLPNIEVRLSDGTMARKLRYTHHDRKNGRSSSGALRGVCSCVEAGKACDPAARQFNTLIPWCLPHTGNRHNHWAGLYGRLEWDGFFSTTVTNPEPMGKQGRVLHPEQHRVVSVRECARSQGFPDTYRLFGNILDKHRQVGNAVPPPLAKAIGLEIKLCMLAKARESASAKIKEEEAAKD

## Cc1cc(C)c(CNC(=O)c2cnn(-c3ccccc3)c2C)c(=O)[nH]1 [MC3629, N-((4,6-dimethyl-2-oxo-1,2-dihydropyridin-3-yl)methyl)-5-methyl-1-phenyl-1H-pyrazole-4-carboxamide]
DNMT1
  inhibition at 200 µM: 0%
mMB-SLCs
  minimum effective time, cell viability: 48 h
mMB-SLCs; [1]
  lowest useful dose, cell viability: 5 µM
hMB-SLCs
  minimum effective time, cell viability: 48 h
hMB-SLCs; 5 μM, 48 h
  cell viability, combination with shEZH2 versus shEZH2 alone: did not display any additive effect
hMB-SLCs; [1]
  lowest useful dose, cell viability: 5 µM
